# In ChEMBL document CHEMBL1130422, “A refined model for the somatostatin pharmacophore: conformational analysis of lanthionine-sandostatin analogs” (J Med Chem, 1997):
# Where a SMILES comes first, the peptide text is derived from it. Bridges are numbered along the chain shown (N, C = ends). [ ]: non-standard residue; d: D form. d(aThr) = C[C@@H](O)[C@@H](N)C(=O)O
# Molecular target: Somatostatin receptor type 2 (Mus musculus, UniProt P30875)
# Assay: Compound was tested for the inhibition of mSSTR2b
# Chain of Somatostatin receptor type 2 (P30875 whole entry): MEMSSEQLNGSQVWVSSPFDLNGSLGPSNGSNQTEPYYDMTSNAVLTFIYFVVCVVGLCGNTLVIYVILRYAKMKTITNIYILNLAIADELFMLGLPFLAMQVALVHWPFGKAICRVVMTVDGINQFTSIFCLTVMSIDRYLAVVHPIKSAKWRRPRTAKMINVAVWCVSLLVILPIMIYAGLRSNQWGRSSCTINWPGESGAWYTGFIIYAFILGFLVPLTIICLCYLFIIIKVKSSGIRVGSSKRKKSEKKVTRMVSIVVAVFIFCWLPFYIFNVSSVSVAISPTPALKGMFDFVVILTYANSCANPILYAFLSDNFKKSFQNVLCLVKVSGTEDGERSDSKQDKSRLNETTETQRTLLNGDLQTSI
row,SMILES,IC50 [nM]
1,C[C@@H](O)[C@H](NC(=O)[C@@H]1CSSC[C@H](NC(=O)[C@H](N)Cc2ccccc2)C(=O)N[C@@H](Cc2ccccc2)C(=O)N[C@H](Cc2c[nH]c3ccccc23)C(=O)N[C@@H](CCCCN)C(=O)N[C@@H]([C@@H](C)O)C(=O)N1)C(=O)O,0.28
2,C[C@@H](O)[C@H](NC(=O)[C@@H]1CSC[C@H](NC(=O)[C@H](N)Cc2ccccc2)C(=O)N[C@@H](Cc2ccccc2)C(=O)N[C@H](Cc2c[nH]c3ccccc23)C(=O)N[C@@H](CCCCN)C(=O)N[C@@H]([C@@H](C)O)C(=O)N1)C(N)=O,15.6

# Molecular target: T1, Somatostatin receptor type 5 (Rattus norvegicus, UniProt P30938)
# T1 sequence (P30938 whole entry): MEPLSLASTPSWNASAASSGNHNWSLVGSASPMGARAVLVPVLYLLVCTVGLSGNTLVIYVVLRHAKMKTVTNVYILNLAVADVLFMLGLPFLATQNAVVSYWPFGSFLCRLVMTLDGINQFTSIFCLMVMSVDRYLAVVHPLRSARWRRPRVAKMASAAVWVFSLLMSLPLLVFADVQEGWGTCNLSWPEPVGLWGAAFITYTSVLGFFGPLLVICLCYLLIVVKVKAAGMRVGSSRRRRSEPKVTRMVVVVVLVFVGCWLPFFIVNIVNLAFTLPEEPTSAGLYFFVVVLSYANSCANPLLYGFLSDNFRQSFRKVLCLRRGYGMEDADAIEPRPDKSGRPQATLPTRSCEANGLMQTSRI
# Assay: Compound was tested for the inhibition of rSSTR5
row,SMILES,IC50 [nM]
1,C[C@@H](O)[C@@H](NC(=O)[C@H]1CSSC[C@H](NC(=O)[C@@H](N)Cc2ccccc2)C(=O)N[C@@H](Cc2ccccc2)C(=O)N[C@H](Cc2c[nH]c3ccccc23)C(=O)N[C@@H](CCCCN)C(=O)N[C@H]([C@@H](C)O)C(=O)N1)C(=O)O,1.04
2,C[C@@H](O)[C@H](NC(=O)[C@@H]1CSC[C@@H](NC(=O)[C@H](N)Cc2ccccc2)C(=O)N[C@H](Cc2ccccc2)C(=O)N[C@@H](Cc2c[nH]c3ccccc23)C(=O)N[C@H](CCCCN)C(=O)N[C@@H]([C@@H](C)O)C(=O)N1)C(N)=O,5.5
3,C[C@@H](O)[C@@H]1NC(=O)[C@@H](CCCCN)NC(=O)[C@H](Cc2c[nH]c3ccccc23)NC(=O)[C@@H](Cc2ccccc2)NC(=O)[C@H](NC(=O)[C@H](N)Cc2ccccc2)CSC[C@@H](C(=O)O)NC1=O,500
4,C[C@@H](O)[C@H]1NC(=O)[C@H](CCCCN)NC(=O)[C@@H](Cc2c[nH]c3ccccc23)NC(=O)[C@H](Cc2ccccc2)NC(=O)[C@@H](NC(=O)[C@@H](N)Cc2ccccc2)CSSC[C@H](C(=O)O)NC1=O (H-FCF[dW]K[d(aThr)][dC]-OH; disulfide 2-7),10.6
